In ChEMBL document CHEMBL3046265, “Synthesis, evaluation of antimicrobial activity, and molecular modeling of novel 2-((4-(2H-benzo[d] [1,2,3] triazol-2-yl)piperidin-1-yl)methyl)-5-substituted phenyl-1,3,4-oxadiazoles” (2013):

Key:
Type in all cases: functional
Settings in all cases: read-out: IZ
Colletotrichum falcatum [1] = assay: Antifungal activity against Glomerella tucumanensis at 1200 ug/ml after 48 hr
Klebsiella pneumoniae [2] = assay: Antibacterial activity against Klebsiella pneumoniae at 900 ug/ml after overnight incubation
Bacillus subtilis [3] = assay: Antibacterial activity against Bacillus subtilis at 900 ug/ml after overnight incubation
Fusarium oxysporum [4] = assay: Antifungal activity against Fusarium oxysporum at 600 ug/ml after 48 hr
Staphylococcus aureus [5] = assay: Antibacterial activity against Staphylococcus aureus at 900 ug/ml after overnight incubation
Fusarium oxysporum [6] = assay: Antifungal activity against Fusarium oxysporum at 1200 ug/ml after 48 hr
Colletotrichum falcatum [7] = assay: Antifungal activity against Glomerella tucumanensis at 300 ug/ml after 48 hr
Klebsiella aerogenes [8] = assay: Antibacterial activity against Enterobacter aerogenes at 600 ug/ml after overnight incubation
Exserohilum rostratum [9] = assay: Antifungal activity against Setosphaeria rostrata at 900 ug/ml after 48 hr
Klebsiella aerogenes [10] = assay: Antibacterial activity against Enterobacter aerogenes at 900 ug/ml after overnight incubation
Colletotrichum falcatum [11] = assay: Antifungal activity against Glomerella tucumanensis at 600 ug/ml after 48 hr
Enterococcus faecalis [12] = assay: Antibacterial activity against Enterococcus faecalis at 900 ug/ml after overnight incubation
Streptococcus pyogenes [13] = assay: Antibacterial activity against Streptococcus pyogenes at 900 ug/ml after overnight incubation
Candida albicans [14] = assay: Antifungal activity against Candida albicans at 1200 ug/ml after 48 hr
Exserohilum rostratum [15] = assay: Antifungal activity against Setosphaeria rostrata at 1200 ug/ml after 48 hr
Bacillus pumilus [16] = assay: Antibacterial activity against Bacillus pumilus at 900 ug/ml after overnight incubation
Candida albicans [17] = assay: Antifungal activity against Candida albicans at 300 ug/ml after 48 hr
Bacillus subtilis [18] = assay: Antibacterial activity against Bacillus subtilis at 600 ug/ml after overnight incubation
Escherichia coli [19] = assay: Antibacterial activity against Escherichia coli at 600 ug/ml after overnight incubation
Priestia megaterium [20] = assay: Antibacterial activity against Bacillus megaterium at 600 ug/ml after overnight incubation
Enterococcus faecalis [21] = assay: Antibacterial activity against Enterococcus faecalis at 600 ug/ml after overnight incubation
Fusarium oxysporum [22] = assay: Antifungal activity against Fusarium oxysporum at 900 ug/ml after 48 hr
Colletotrichum falcatum [23] = assay: Antifungal activity against Glomerella tucumanensis at 900 ug/ml after 48 hr
Klebsiella pneumoniae [24] = assay: Antibacterial activity against Klebsiella pneumoniae at 600 ug/ml after overnight incubation
Candida albicans [25] = assay: Antifungal activity against Candida albicans at 900 ug/ml after 48 hr
Escherichia coli [26] = assay: Antibacterial activity against Escherichia coli at 900 ug/ml after overnight incubation
Exserohilum rostratum [27] = assay: Antifungal activity against Setosphaeria rostrata at 600 ug/ml after 48 hr
Priestia megaterium [28] = assay: Antibacterial activity against Bacillus megaterium at 900 ug/ml after overnight incubation
Staphylococcus aureus [29] = assay: Antibacterial activity against Staphylococcus aureus at 600 ug/ml after overnight incubation
Exserohilum rostratum [30] = assay: Antifungal activity against Setosphaeria rostrata at 300 ug/ml after 48 hr
Streptococcus pyogenes [31] = assay: Antibacterial activity against Streptococcus pyogenes at 600 ug/ml after overnight incubation
Candida albicans [32] = assay: Antifungal activity against Candida albicans at 600 ug/ml after 48 hr
Proteus vulgaris [33] = assay: Antibacterial activity against Proteus vulgaris at 600 ug/ml after overnight incubation
Proteus vulgaris [34] = assay: Antibacterial activity against Proteus vulgaris at 900 ug/ml after overnight incubation
Bacillus pumilus [35] = assay: Antibacterial activity against Bacillus pumilus at 600 ug/ml after overnight incubation
Fusarium oxysporum [36] = assay: Antifungal activity against Fusarium oxysporum at 300 ug/ml after 48 hr

Structure (SMILES): O=[N+]([O-])c1ccc(-c2nnc(CN3CCC(n4nc5ccccc5n4)CC3)o2)cc1Cl
- zone of inhibition at 1200 µg/mL (Colletotrichum falcatum [1]): 33.2 mm
- zone of inhibition at 900 µg/mL (Klebsiella pneumoniae [2]): 6.25 mm
- zone of inhibition at 900 µg/mL (Bacillus subtilis [3]): 12 mm
- zone of inhibition at 600 µg/mL (Fusarium oxysporum [4]): 8.8 mm
- zone of inhibition at 900 µg/mL (Staphylococcus aureus [5]): 10.2 mm
- zone of inhibition at 1200 µg/mL (Fusarium oxysporum [6]): 31.4 mm
- zone of inhibition at 300 µg/mL (Colletotrichum falcatum [7]): 4.57 mm
- zone of inhibition at 600 µg/mL (Klebsiella aerogenes [8]): 6.28 mm
- zone of inhibition at 900 µg/mL (Exserohilum rostratum [9]): 11 mm
- zone of inhibition at 900 µg/mL (Klebsiella aerogenes [10]): 12.4 mm
- zone of inhibition at 600 µg/mL (Colletotrichum falcatum [11]): 9.86 mm
- zone of inhibition at 900 µg/mL (Enterococcus faecalis [12]): 7.25 mm
- zone of inhibition at 900 µg/mL (Streptococcus pyogenes [13]): 7.05 mm
- zone of inhibition at 1200 µg/mL (Candida albicans [14]): 23.1 mm
- zone of inhibition at 1200 µg/mL (Exserohilum rostratum [15]): 23 mm
- zone of inhibition at 900 µg/mL (Bacillus pumilus [16]): 7.25 mm
- zone of inhibition at 300 µg/mL (Candida albicans [17]): 2.87 mm
- zone of inhibition at 600 µg/mL (Bacillus subtilis [18]): 5.89 mm
- zone of inhibition at 600 µg/mL (Escherichia coli [19]): 4.82 mm
- zone of inhibition at 600 µg/mL (Priestia megaterium [20]): 5.62 mm
- zone of inhibition at 600 µg/mL (Enterococcus faecalis [21]): 4.52 mm
- zone of inhibition at 900 µg/mL (Fusarium oxysporum [22]): 15.2 mm
- zone of inhibition at 900 µg/mL (Colletotrichum falcatum [23]): 17.8 mm
- zone of inhibition at 600 µg/mL (Klebsiella pneumoniae [24]): 3.89 mm
- zone of inhibition at 900 µg/mL (Candida albicans [25]): 12.9 mm
- zone of inhibition at 900 µg/mL (Escherichia coli [26]): 9.56 mm
- zone of inhibition at 600 µg/mL (Exserohilum rostratum [27]): 5.56 mm
- zone of inhibition at 900 µg/mL (Priestia megaterium [28]): 12.3 mm
- zone of inhibition at 600 µg/mL (Staphylococcus aureus [29]): 4.89 mm
- zone of inhibition at 300 µg/mL (Exserohilum rostratum [30]): 2.95 mm
- zone of inhibition at 600 µg/mL (Streptococcus pyogenes [31]): 3.35 mm
- zone of inhibition at 600 µg/mL (Candida albicans [32]): 6.25 mm
- zone of inhibition at 600 µg/mL (Proteus vulgaris [33]): 4.85 mm
- zone of inhibition at 900 µg/mL (Proteus vulgaris [34]): 9.56 mm
- zone of inhibition at 600 µg/mL (Bacillus pumilus [35]): 3.46 mm
- zone of inhibition at 300 µg/mL (Fusarium oxysporum [36]): 4.45 mm

Structure (SMILES): Brc1cccc(-c2nnc(CN3CCC(n4nc5ccccc5n4)CC3)o2)c1
- zone of inhibition at 1200 µg/mL (Colletotrichum falcatum [1]): 17.8 mm
- zone of inhibition at 900 µg/mL (Klebsiella pneumoniae [2]): 7.62 mm
- zone of inhibition at 900 µg/mL (Bacillus subtilis [3]): 9.25 mm
- zone of inhibition at 600 µg/mL (Fusarium oxysporum [4]): 7.86 mm
- zone of inhibition at 900 µg/mL (Staphylococcus aureus [5]): 8.25 mm
- zone of inhibition at 1200 µg/mL (Fusarium oxysporum [6]): 29.9 mm
- zone of inhibition at 300 µg/mL (Colletotrichum falcatum [7]): 2.95 mm
- zone of inhibition at 600 µg/mL (Klebsiella aerogenes [8]): 5.85 mm
- zone of inhibition at 900 µg/mL (Exserohilum rostratum [9]): 7.96 mm
- zone of inhibition at 900 µg/mL (Klebsiella aerogenes [10]): 11.6 mm
- zone of inhibition at 600 µg/mL (Colletotrichum falcatum [11]): 5.01 mm
- zone of inhibition at 900 µg/mL (Enterococcus faecalis [12]): 5.8 mm
- zone of inhibition at 900 µg/mL (Streptococcus pyogenes [13]): 7.25 mm
- zone of inhibition at 1200 µg/mL (Candida albicans [14]): 16.8 mm
- zone of inhibition at 1200 µg/mL (Exserohilum rostratum [15]): 15.1 mm
- zone of inhibition at 900 µg/mL (Bacillus pumilus [16]): 8.12 mm
- zone of inhibition at 300 µg/mL (Candida albicans [17]): 2.5 mm
- zone of inhibition at 600 µg/mL (Bacillus subtilis [18]): 4.25 mm
- zone of inhibition at 600 µg/mL (Escherichia coli [19]): 3.25 mm
- zone of inhibition at 600 µg/mL (Priestia megaterium [20]): 3.26 mm
- zone of inhibition at 600 µg/mL (Enterococcus faecalis [21]): 3.21 mm
- zone of inhibition at 900 µg/mL (Fusarium oxysporum [22]): 15.8 mm
- zone of inhibition at 900 µg/mL (Colletotrichum falcatum [23]): 9.25 mm
- zone of inhibition at 600 µg/mL (Klebsiella pneumoniae [24]): 3.25 mm
- zone of inhibition at 900 µg/mL (Candida albicans [25]): 7.86 mm
- zone of inhibition at 900 µg/mL (Escherichia coli [26]): 6.45 mm
- zone of inhibition at 600 µg/mL (Exserohilum rostratum [27]): 4.01 mm
- zone of inhibition at 900 µg/mL (Priestia megaterium [28]): 7.25 mm
- zone of inhibition at 600 µg/mL (Staphylococcus aureus [29]): 4.46 mm
- zone of inhibition at 300 µg/mL (Exserohilum rostratum [30]): 3.98 mm
- zone of inhibition at 600 µg/mL (Streptococcus pyogenes [31]): 3.85 mm
- zone of inhibition at 600 µg/mL (Candida albicans [32]): 4.03 mm
- zone of inhibition at 600 µg/mL (Proteus vulgaris [33]): 2.25 mm
- zone of inhibition at 900 µg/mL (Proteus vulgaris [34]): 5.03 mm
- zone of inhibition at 600 µg/mL (Bacillus pumilus [35]): 4.25 mm
- zone of inhibition at 300 µg/mL (Fusarium oxysporum [36]): 3.55 mm

Structure (SMILES): CN[C@@H]1[C@H](O[C@H]2[C@H](O[C@H]3[C@H](O)[C@@H](O)[C@H](N=C(N)N)[C@@H](O)[C@@H]3N=C(N)N)O[C@@H](C)[C@]2(O)C=O)O[C@@H](CO)[C@H](O)[C@H]1O [STREPTOMYCIN]
- zone of inhibition at 900 µg/mL (Klebsiella pneumoniae [2]): 6.54 mm
- zone of inhibition at 900 µg/mL (Bacillus subtilis [3]): 16.2 mm
- zone of inhibition at 900 µg/mL (Staphylococcus aureus [5]): 20 mm
- zone of inhibition at 600 µg/mL (Klebsiella aerogenes [8]): 4.47 mm
- zone of inhibition at 900 µg/mL (Klebsiella aerogenes [10]): 8.76 mm
- zone of inhibition at 900 µg/mL (Enterococcus faecalis [12]): 20.3 mm
- zone of inhibition at 900 µg/mL (Streptococcus pyogenes [13]): 16.5 mm
- zone of inhibition at 900 µg/mL (Bacillus pumilus [16]): 14.5 mm
- zone of inhibition at 600 µg/mL (Bacillus subtilis [18]): 8.44 mm
- zone of inhibition at 600 µg/mL (Escherichia coli [19]): 3.06 mm
- zone of inhibition at 600 µg/mL (Priestia megaterium [20]): 6.23 mm
- zone of inhibition at 600 µg/mL (Enterococcus faecalis [21]): 12.8 mm
- zone of inhibition at 600 µg/mL (Klebsiella pneumoniae [24]): 3.24 mm
- zone of inhibition at 900 µg/mL (Escherichia coli [26]): 6.14 mm
- zone of inhibition at 900 µg/mL (Priestia megaterium [28]): 12.8 mm
- zone of inhibition at 600 µg/mL (Staphylococcus aureus [29]): 10.3 mm
- zone of inhibition at 600 µg/mL (Streptococcus pyogenes [31]): 8.91 mm
- zone of inhibition at 600 µg/mL (Proteus vulgaris [33]): 8.9 mm
- zone of inhibition at 900 µg/mL (Proteus vulgaris [34]): 16.1 mm
- zone of inhibition at 600 µg/mL (Bacillus pumilus [35]): 7.25 mm
